Key:
Type in all cases: in vivo
[1] = tested on: non-transformed tobacco plants (Wt); test: Symptoms due to herbicide application on tobacco plants (damage classes 0-3); conditions: one week after application
Text: (§1) Seeds harvested from TO transformants will be put on standard soil for germination. Three weeks later plantlets (T1) will be transferred to single pots and grown under standard cultivation conditions (PCT/EP2010/070575, published as WO 2011/076889). Two weeks later, plants were sprayed with several N-(tetrazol-4-yl)- or N-(triazol-3-yl)arylcarboxamides as defined above.
(§2) Tables F1 to F5: Evaluation of the Symptoms Observed Due to the Application of the Herbicides on Transgenic Tobacco Plants, Expressing the Mutant Pseudomonas fluorescens HPPD G336W, the Avena HPPD (AvHPPD), the HPPD from Kordia algicida FMP27 or the HPPD from Blepharisma japonicum (FMP37), Compared to Non-Tranformed Tobacco Plants (“Wt”).
(§3) The herbicides (with “g Al/ha” meaning “g active ingredient/ha”) were applied on 8 to 10 plants originated from 1 to 3 independent transgenic events per transgene.
(§4) The symptoms were evaluated and classified as following: • 3=Very strong damage • 2=Strong damage • 1=Light and transient damage • 0=No damage

[2] = tested on: transgenic tobacco plants expressing Avena HPPD (AvHPPD); test: Symptoms due to herbicide application on transgenic tobacco plants (damage classes 0-3); conditions: one week after application, AvHPPD line 659
Text: (§5) Genes coding for the selected HPPD were obtained from a member of the group of organisms consisting of Avena sativa, Pseudomonas fluorescens mutant G336W, Blepharisma japonicum and Kordia algicida and cloned into the binary vector pBin19 allowing the integration of DNA into the tobacco genome, under the control of the CaMV35S promoter. For the cloning procedures, see A2 above for Avena sativa, see B2 above for Pseudomonas fluorescens, mutant G336W, see PCT/EP2010/070567 (published as WO 2011/076882, Example 5; for Blepharisma japonicum (FMP37) and see PCT/EP2010/070575, Example 5 for Kordia algicida (FMP27). Between the sequence corresponding to the promoter and the sequence coding for the HPPD a DNA sequence coding for a transit peptide to the chloroplast was inserted, in order to add at the N-terminal extremity of the protein a target signal to allow the localization of the HPPD protein into the plant chloroplast.
as §1, §2, §3, §4

[3] = tested on: transgenic tobacco plants expressing HPPD from Blepharisma japonicum (FMP37); test: as above; conditions: one week after application
Text: as §5, §1, §2, §3, §4

[4] = tested on: transgenic tobacco plants expressing HPPD from Kordia algicida FMP27; test: as above; conditions: one week after application
Text: as §5, §1, §2, §3, §4

[5] = tested on: transgenic tobacco plants expressing mutant Pseudomonas fluorescens HPPD G336W (PfHPPD-G336W); test: as above; conditions: one week after application, PfHPPD-G336W line 646
Text: as §5, §1, §2, §3, §4

[6] = tested on: transgenic tobacco plants expressing tolerant HPPD enzymes; test: Tolerance of tobacco plants expressing tolerant HPPD enzymes (all transgenes); conditions: for tolerance of the transgenic tobacco plants (symptoms due to application of the herbicide): T1 plants sprayed, evaluated one week after application; for sensitivity of transgenic tobacco plants compared to wild type (wt) plants: all tested independent lines, agronomically relevant dose
Text: as §5, §1, §2, §3, §4

[7] = tested on: soybean plants expressing Pseudomonas fluorescens G336W mutant, FMP 27 and FMP 37; test: Tolerance to HPPD inhibitors of soybean plants expressing tolerant HPPD enzymes; conditions: T1 soybean plants; one week after application
Text: (§6) Genes coding for the selected HPPD were obtained from a member of the group of organisms consisting of Blepharisma japonicum and Kordia algicida and cloned into an appropriate binary vector allowing the integration of DNA into the soybean genome, under the control of the CaMV35S promoter. For the respective cloning procedures, see WO2011076882 (PCT/EP2010/070567), Example 9; for Blepharisma japonicum (FMP37) and WO2011076889 (PCT/EP2010/070575), Example 9 for Kordia algicida (FMP27).
Between the sequence corresponding to the promoter and the sequence coding for the HPPD a DNA sequence coding for a transit peptide to the chloroplast was inserted, in order to add at the N-terminal extremity of the protein a target signal to allow the localization of the HPPD protein into the plant chloroplast. By using the vectors “pFCO112” (Blepharisma japonicum, WO2011076882), pFCO116 (Korida algicida, WO2011076889), and pFCO117” (see Example B2, above), soybean transformation was achieved as described in Example 10 of WO2011076882 (PCT/EP2010/070567) for Blepharisma japonicum (FMP37) and WO2011076889 (PCT/EP2010/070575) for Kordia algicida (FMP27). Seeds from TO events showing tolerance to tembotrione were harvested.
T1 Soybean seeds were transferred to single pots and grown under standard cultivation conditions, see WO2011076882.
Two weeks later, plants will be sprayed with several N-(tetrazol-4-yl)- or N-(triazol-3-yl)arylcarboxamides as defined above.

[8] = tested on: cotton plants expressing FMP 27 and FMP 37; test: Tolerance to HPPD inhibitors of cotton plants expressing tolerant HPPD enzymes; conditions: T1 cotton plants; one week after application
Text: as §6, with “the cotton” for “the soybean”, “Example 11;” for “Example 9;”, “Example 11” for “Example 9”
Between the sequence corresponding to the promoter and the sequence coding for the HPPD a DNA sequence coding for a transit peptide to the chloroplast was inserted, in order to add at the N-terminal extremity of the protein a target signal to allow the localization of the HPPD protein into the plant chloroplast. Cotton transformation was achieved as described in Example 12 of WO2011076882 (PCT/EP2010/070567) for Blepharisma japonicum (FMP37) and WO2011076889 (PCT/EP2010/070575) for Kordia algicida (FMP27). Seeds from T0 events showing tolerance to tembotrione were harvested.
T1 Cotton seeds were transferred to single pots and grown under standard cultivation conditions, see WO2011076882 (PCT/EP2010/070567) for Blepharisma japonicum (FMP37) and WO2011076889 (PCT/EP2010/070575) for Kordia algicida (FMP27).
At least 4 weeks later, plants will be sprayed with several N-(tetrazol-4-yl)- or N-(triazol-3-yl)arylcarboxamides as defined above.

[9] = 50 g AI/ha, WP20 + oilseed rape methyl ester + ammonium sulfate

## COCc1c(S(C)(=O)=O)ccc(C(=O)Nc2nnnn2C)c1Cl [Compound 4-253]
[1]; [9]
  number of plants with Damage 0 (No damage): 0
  number of plants with Damage 1 (Light and transient damage): 0
  number of plants with Damage 2 (Strong damage): 0
  number of plants with Damage 3 (Very strong damage): 10
[2]; 50 g AI/ha
  number of plants with Damage 0 (No damage): 3
  number of plants with Damage 1 (Light and transient damage): 0
  number of plants with Damage 2 (Strong damage): 0
  number of plants with Damage 3 (Very strong damage): 7
[3]; 50 g AI/ha, FMP37 line 749
  number of plants with Damage 0 (No damage): 7
  number of plants with Damage 1 (Light and transient damage): 2
  number of plants with Damage 2 (Strong damage): 0
  number of plants with Damage 3 (Very strong damage): 1
[3]; 50 g AI/ha, FMP37 line 754
  number of plants with Damage 0 (No damage): 6
  number of plants with Damage 1 (Light and transient damage): 2
  number of plants with Damage 2 (Strong damage): 1
  number of plants with Damage 3 (Very strong damage): 1
[3]; 50 g AI/ha, FMP37 line 795
  number of plants with Damage 0 (No damage): 3
  number of plants with Damage 1 (Light and transient damage): 4
  number of plants with Damage 2 (Strong damage): 0
  number of plants with Damage 3 (Very strong damage): 3
[4]; 50 g AI/ha, FMP27 line 733
  number of plants with Damage 0 (No damage): 4
  number of plants with Damage 1 (Light and transient damage): 4
  number of plants with Damage 2 (Strong damage): 2
  number of plants with Damage 3 (Very strong damage): 0
[4]; 50 g AI/ha, FMP27 line 734
  number of plants with Damage 0 (No damage): 6
  number of plants with Damage 1 (Light and transient damage): 1
  number of plants with Damage 2 (Strong damage): 2
  number of plants with Damage 3 (Very strong damage): 1
[4]; 50 g AI/ha, FMP27 line 735
  number of plants with Damage 0 (No damage): 2
  number of plants with Damage 1 (Light and transient damage): 5
  number of plants with Damage 2 (Strong damage): 0
  number of plants with Damage 3 (Very strong damage): 3
[5]; 50 g AI/ha
  number of plants with Damage 0 (No damage): 9
  number of plants with Damage 1 (Light and transient damage): 0
  number of plants with Damage 2 (Strong damage): 0
  number of plants with Damage 3 (Very strong damage): 1
[6]
  tolerance of the transgenic tobacco plants (symptoms due to application of the herbicide): good tolerance
  sensitivity of transgenic tobacco plants compared to wild type (wt) plants: less sensitive
[7]
  tolerance of transgenic plants compared to the wild-type soybean plants: superior tolerance
[8]
  tolerance of transgenic plants compared to the wild-type cotton plants: superior tolerance

## CCOc1c(S(C)(=O)=O)ccc(C(=O)Nc2nnnn2C)c1Cl [Compound 4-278]
[1]; 50 g Al/ha
  number of plants with Damage 0 (No damage): 0
  number of plants with Damage 1 (Light and transient damage): 0
  number of plants with Damage 2 (Strong damage): 0
  number of plants with Damage 3 (Very strong damage): 10
[2]; 50 g Al/ha
  number of plants with Damage 0 (No damage): 9
  number of plants with Damage 1 (Light and transient damage): 0
  number of plants with Damage 2 (Strong damage): 0
  number of plants with Damage 3 (Very strong damage): 1
[3]; FMP37 line 749, 50 g Al/ha
  number of plants with Damage 0 (No damage): 5
  number of plants with Damage 1 (Light and transient damage): 4
  number of plants with Damage 2 (Strong damage): 0
  number of plants with Damage 3 (Very strong damage): 1
[3]; FMP37 line 754, 50 g Al/ha
  number of plants with Damage 0 (No damage): 5
  number of plants with Damage 1 (Light and transient damage): 4
  number of plants with Damage 2 (Strong damage): 0
  number of plants with Damage 3 (Very strong damage): 1
[3]; FMP37 line 795, 50 g Al/ha
  number of plants with Damage 0 (No damage): 4
  number of plants with Damage 1 (Light and transient damage): 3
  number of plants with Damage 2 (Strong damage): 0
  number of plants with Damage 3 (Very strong damage): 3
[4]; FMP27 line 733, 50 g Al/ha
  number of plants with Damage 0 (No damage): 6
  number of plants with Damage 1 (Light and transient damage): 4
  number of plants with Damage 2 (Strong damage): 0
  number of plants with Damage 3 (Very strong damage): 0
[4]; FMP27 line 734, 50 g Al/ha
  number of plants with Damage 0 (No damage): 6
  number of plants with Damage 1 (Light and transient damage): 3
  number of plants with Damage 2 (Strong damage): 0
  number of plants with Damage 3 (Very strong damage): 1
[4]; FMP27 line 735, 50 g Al/ha
  number of plants with Damage 0 (No damage): 6
  number of plants with Damage 1 (Light and transient damage): 2
  number of plants with Damage 2 (Strong damage): 0
  number of plants with Damage 3 (Very strong damage): 2
[5]; 50 g Al/ha
  number of plants with Damage 0 (No damage): 6
  number of plants with Damage 1 (Light and transient damage): 3
  number of plants with Damage 2 (Strong damage): 0
  number of plants with Damage 3 (Very strong damage): 1
[6]
  tolerance of the transgenic tobacco plants (symptoms due to application of the herbicide): good tolerance
  sensitivity of transgenic tobacco plants compared to wild type (wt) plants: less sensitive
[7]
  tolerance of transgenic plants compared to the wild-type soybean plants: superior tolerance
[8]
  tolerance of transgenic plants compared to the wild-type cotton plants: superior tolerance

From patent US9078446B2, “Use of N-(tetrazol-4-yl)- or N-(triazol-3-yl)arylcarboxamides or their salts for controlling unwanted plants in areas of transgenic crop plants being tolerant to HPPD inhibitor herbicides” (BAYER INTELLECTUAL PROPERTY GMBH, priority 2011, dated 2015)
